Data published in ChEMBL document CHEMBL4229454, “Structural optimization and in vitro profiling of N-phenylbenzamide-based farnesoid X receptor antagonists” (Bioorg Med Chem, 2018).
≈ marks a conversion by molar mass, not a printed value. Values belong to the compound of their own block, whether it stands above or below them. Calls of active or inactive are those of the source. No cut-off for these calls is given here.

Tests used:
[1] = target: T1, Bile acid receptor (Homo sapiens) (UniProt Q96RI1); assay: Antagonist activity at full length human FXR expressed in HeLa cells co-expressing BSEP-pGL3/pSG5-hRXR assessed as inhibition of GW4064-induced receptor activation at 30 uM after 24 hrs by luciferase reporter gene assay; assay type: cell-based
T1 sequence (whole entry): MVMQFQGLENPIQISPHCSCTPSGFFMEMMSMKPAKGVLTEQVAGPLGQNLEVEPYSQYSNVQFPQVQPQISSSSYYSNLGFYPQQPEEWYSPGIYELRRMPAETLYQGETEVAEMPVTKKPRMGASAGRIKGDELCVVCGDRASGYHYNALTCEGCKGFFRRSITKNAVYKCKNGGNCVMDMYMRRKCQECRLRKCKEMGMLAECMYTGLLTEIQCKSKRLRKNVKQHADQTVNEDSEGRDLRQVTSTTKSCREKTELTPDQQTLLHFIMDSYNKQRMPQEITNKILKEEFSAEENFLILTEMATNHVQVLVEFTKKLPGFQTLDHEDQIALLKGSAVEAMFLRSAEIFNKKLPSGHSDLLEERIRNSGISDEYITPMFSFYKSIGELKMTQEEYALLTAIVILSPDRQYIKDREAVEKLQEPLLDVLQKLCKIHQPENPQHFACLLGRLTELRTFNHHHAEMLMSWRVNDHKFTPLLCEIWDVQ

[2] = target: Luciferin 4-monooxygenase (Photinus pyralis) (UniProt P08659); assay: Inhibition of GW4064-induced firefly luciferase expression in HeLa cells co-expressing full length human FXR, BSEP-pGL3 and pSG5-hRXR at 1 uM treated at 23 hrs post GW4064 treatment for 1 hr by luminescence assay; assay type: cell-based
HepG2 [3] = assay: Cytotoxicity against human HepG2 cells assessed as reduction in cell viability at 100 uM after 48 hrs by WST1 assay relative to control; assay type: cell-based; details: hepg2, 48 h
[4] = Aqueous solubility of the compound; assay type: physicochemical; details: water
[5] = target: T2, Oxysterols receptor LXR-alpha (Homo sapiens) (UniProt Q13133); assay: Antagonist activity at GAL4-fused human LXRalpha LBD expressed in HEK293T cells at 1 uM after 12 to 14 hrs by luciferase reporter gene assay; assay type: cell-based
T2 sequence (whole entry): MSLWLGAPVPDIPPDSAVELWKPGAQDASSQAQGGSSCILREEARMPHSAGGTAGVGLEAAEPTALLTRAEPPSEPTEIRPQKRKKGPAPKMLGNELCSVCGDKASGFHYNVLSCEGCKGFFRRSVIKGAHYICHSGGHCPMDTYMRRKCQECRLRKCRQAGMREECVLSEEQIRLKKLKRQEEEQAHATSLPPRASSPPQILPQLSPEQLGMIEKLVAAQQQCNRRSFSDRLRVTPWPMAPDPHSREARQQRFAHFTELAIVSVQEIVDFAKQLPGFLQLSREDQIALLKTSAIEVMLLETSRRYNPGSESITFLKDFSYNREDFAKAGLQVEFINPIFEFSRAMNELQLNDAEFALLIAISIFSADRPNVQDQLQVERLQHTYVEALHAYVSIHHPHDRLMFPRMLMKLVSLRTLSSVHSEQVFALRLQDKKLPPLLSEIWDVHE

[6] = Metabolic stability in Sprague-Dawley rat liver microsomes assessed as parent compound remaining at 10 uM in presence of NADPH measured after 60 mins by HPLC analysis; assay type: ADME, microsome; details: read-out: Stability
[7] = Metabolic stability in Sprague-Dawley rat liver microsomes assessed as parent compound remaining at 10 uM in presence of NADPH measured after 30 mins by HPLC analysis; assay type: ADME, microsome; details: read-out: Stability
[8] = target: T3, Peroxisome proliferator-activated receptor gamma (Homo sapiens) (UniProt P37231); assay: Antagonist activity at GAL4-fused human PPARgamma LBD expressed in HEK293T cells at 1 uM after 12 to 14 hrs by luciferase reporter gene assay; assay type: cell-based
T3 sequence (whole entry): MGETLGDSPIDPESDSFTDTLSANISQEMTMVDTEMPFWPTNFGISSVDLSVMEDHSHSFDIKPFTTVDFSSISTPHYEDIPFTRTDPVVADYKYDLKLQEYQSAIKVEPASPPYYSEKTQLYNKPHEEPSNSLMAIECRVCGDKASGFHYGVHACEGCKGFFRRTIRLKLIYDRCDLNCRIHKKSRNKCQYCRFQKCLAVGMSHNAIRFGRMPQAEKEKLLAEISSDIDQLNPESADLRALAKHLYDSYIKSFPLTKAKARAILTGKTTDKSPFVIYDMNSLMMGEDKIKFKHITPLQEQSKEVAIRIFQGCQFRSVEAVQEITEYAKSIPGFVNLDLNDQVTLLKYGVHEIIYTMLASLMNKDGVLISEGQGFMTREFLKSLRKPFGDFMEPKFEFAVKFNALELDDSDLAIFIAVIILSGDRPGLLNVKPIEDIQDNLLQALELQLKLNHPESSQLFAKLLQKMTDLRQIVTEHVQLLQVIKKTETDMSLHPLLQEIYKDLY

HepG2 [9] = assay: Cytotoxicity against human HepG2 cells assessed as reduction in cell viability up to 100 uM after 48 hrs by WST1 assay; assay type: cell-based; details: hepg2, 48 h
[10] = target: T2, Oxysterols receptor LXR-alpha (Homo sapiens); assay: Agonist activity at GAL4-fused human LXRalpha LBD expressed in HEK293T cells at 1 uM after 12 to 14 hrs by luciferase reporter gene assay; assay type: cell-based
HeLa = assay: Cytotoxicity against human HeLa cells co-expressing full length human FXR, BSEP-pGL3 and pSG5-hRXR assessed as reduction in cell viability up to 50 uM after 48 hrs by WST1 assay; assay type: ADME, cell-based
[11] = target: T4, Nuclear receptor subfamily 1 group I member 3 (Homo sapiens, UniProt Q14994); assay: Agonist activity at GAL4-fused human CAR LBD expressed in HEK293T cells at 1 uM after 12 to 14 hrs by luciferase reporter gene assay; assay type: cell-based
T4 sequence (Q14994 whole entry): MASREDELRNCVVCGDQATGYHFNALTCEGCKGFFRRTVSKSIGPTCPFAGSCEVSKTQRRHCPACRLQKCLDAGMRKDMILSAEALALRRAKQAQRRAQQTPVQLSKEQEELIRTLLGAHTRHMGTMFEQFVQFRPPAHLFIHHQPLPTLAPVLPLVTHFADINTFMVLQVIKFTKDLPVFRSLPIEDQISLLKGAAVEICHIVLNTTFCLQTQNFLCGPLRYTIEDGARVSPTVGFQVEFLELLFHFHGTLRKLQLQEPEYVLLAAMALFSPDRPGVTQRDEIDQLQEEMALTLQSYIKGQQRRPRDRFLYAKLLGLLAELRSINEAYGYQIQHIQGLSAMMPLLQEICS

[12] = Metabolic stability in Sprague-Dawley rat liver microsomes assessed as parent compound remaining at 10 uM in presence of NADPH measured after 15 mins by HPLC analysis; assay type: ADME, microsome; details: read-out: Stability
[13] = Metabolic stability in Sprague-Dawley rat liver microsomes assessed as parent compound remaining at 10 uM in presence of NADPH measured immediately by HPLC analysis; assay type: ADME, microsome; details: read-out: Stability
[14] = target: T5, Retinoic acid receptor RXR-alpha (Homo sapiens) (UniProt P19793); assay: Agonist activity at GAL4-fused human RXRalpha LBD expressed in HEK293T cells at 1 uM after 12 to 14 hrs by luciferase reporter gene assay; assay type: cell-based
T5 sequence (whole entry): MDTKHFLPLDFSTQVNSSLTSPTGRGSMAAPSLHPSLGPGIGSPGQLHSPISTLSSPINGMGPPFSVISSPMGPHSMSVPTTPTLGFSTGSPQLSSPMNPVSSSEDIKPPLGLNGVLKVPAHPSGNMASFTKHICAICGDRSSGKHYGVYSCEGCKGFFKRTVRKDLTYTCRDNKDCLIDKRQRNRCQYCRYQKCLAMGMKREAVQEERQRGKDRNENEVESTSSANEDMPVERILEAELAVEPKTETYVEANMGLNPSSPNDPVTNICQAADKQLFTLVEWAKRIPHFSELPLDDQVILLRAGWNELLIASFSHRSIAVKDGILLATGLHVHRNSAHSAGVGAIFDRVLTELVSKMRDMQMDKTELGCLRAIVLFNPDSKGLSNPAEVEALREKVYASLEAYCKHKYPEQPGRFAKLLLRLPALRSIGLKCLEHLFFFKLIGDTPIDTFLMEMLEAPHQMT

[15] = target: T3, Peroxisome proliferator-activated receptor gamma (Homo sapiens); assay: Agonist activity at GAL4-fused human PPARgamma LBD expressed in HEK293T cells at 1 uM after 12 to 14 hrs by luciferase reporter gene assay; assay type: cell-based
[16] = target: T5, Retinoic acid receptor RXR-alpha (Homo sapiens); assay: Antagonist activity at GAL4-fused human RXRalpha LBD expressed in HEK293T cells at 1 uM after 12 to 14 hrs by luciferase reporter gene assay; assay type: cell-based
[17] = target: T4, Nuclear receptor subfamily 1 group I member 3; assay: Antagonist activity at GAL4-fused human CAR LBD expressed in HEK293T cells at 1 uM after 12 to 14 hrs by luciferase reporter gene assay; assay type: cell-based
HEK293 = assay: Cytotoxicity against HEK293 cells assessed as reduction in cell viability at >10 uM after 48 hrs by WST1 assay; assay type: cell-based; details: human, hek293, 48 h

Luciferin 4-monooxygenase (Photinus pyralis), sequence (P08659 whole entry): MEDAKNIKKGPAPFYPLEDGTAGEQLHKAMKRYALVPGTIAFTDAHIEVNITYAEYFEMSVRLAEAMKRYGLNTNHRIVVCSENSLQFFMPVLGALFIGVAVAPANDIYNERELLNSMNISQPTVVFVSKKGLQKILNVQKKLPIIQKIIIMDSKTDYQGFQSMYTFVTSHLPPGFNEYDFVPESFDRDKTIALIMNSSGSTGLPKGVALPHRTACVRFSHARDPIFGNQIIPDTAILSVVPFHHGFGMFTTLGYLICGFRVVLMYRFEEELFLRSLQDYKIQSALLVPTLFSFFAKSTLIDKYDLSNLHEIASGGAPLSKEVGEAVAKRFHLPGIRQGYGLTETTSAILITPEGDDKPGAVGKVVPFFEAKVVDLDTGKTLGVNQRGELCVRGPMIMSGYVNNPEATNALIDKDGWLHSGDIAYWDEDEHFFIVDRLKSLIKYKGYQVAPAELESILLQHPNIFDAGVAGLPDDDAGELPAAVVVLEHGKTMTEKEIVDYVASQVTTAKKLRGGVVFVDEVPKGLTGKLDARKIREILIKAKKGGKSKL

SMILES: O=C(O)Cc1ccc(NC(=O)c2ccccc2-c2ccccc2)cc1
inhibition [1]: inactive

SMILES: CC(C)(C)c1ccc(C(=O)Nc2cccc(CC(=O)O)c2)cc1
inhibition [2]: inactive

SMILES: CC(C)(C)c1ccc(C(=O)Nc2ccccc2CC(=O)O)cc1
Activity (HepG2 [3]): 118%

SMILES: COc1ccc(C(C)(C)C)cc1C(=O)Nc1ccc(CC(=O)O)cc1
inhibition [1]: inactive

solubility [4]: 16 µg/mL (≈ 46.9 µM)
inhibition [5]: inactive
remaining at 1 h, 10 µM [6]: 97%
remaining at 0.5 h, 10 µM [7]: 96%
inhibition [8]: inactive
Activity [10]: inactive
Activity [11]: Not Active
remaining at 0.25 h, 10 µM [12]: 98%
remaining at 0 min, 10 µM [13]: 100%
Activity [14]: inactive
Activity [15]: inactive
inhibition [16]: inactive
inhibition (INH) [17]: Not Active
SMILES: COc1cc(C(C)(C)C)ccc1C(=O)Nc1ccc(CC(=O)O)cc1
Activity (HepG2 [9]): Non-Toxic
Activity (HeLa): Non-Toxic
inhibition [2]: inactive
Activity (HEK293): Non-Toxic

SMILES: COc1cc(C(=O)Nc2ccc(CC(=O)O)cc2)ccc1C(C)(C)C
Activity (HepG2 [3]): 112%
